{
  "source": "patent US20190375764A1",
  "about": "“SALTS OF A HETEROCYCLIC COMPOUND AND CRYSTALLINE FORMS, PROCESSES FOR PREPARING, THERAPEUTIC USES, AND PHARMACEUTICAL COMPOSITIONS THEREOF” (Sunovion Pharmaceuticals Inc., priority 2018, published 2019)",
  "type_in_all_cases": "physicochemical",
  "key": {"[1]": {"assay": "Dynamic vapor sorption (DVS) moisture sorption isotherm", "conditions": "for hygroscopicity: result of DVS, in words", "protocol": "DVS moisture sorption isotherms were generated using a Hiden Analytical IGA-sorp moisture sorption analyzer. Samples were run as received without pre-analysis drying. Each sample was equilibrated between about 30 and 120 minutes at each relative humidity (RH) step. Temperature was fixed at about 25° C. and the relative humidity steps (0 to 95% RH) were in 5-10% increments. Sample sizes ranged from 3 to 30 mg. After DVS measurement, XRPD was measured in order to check the solid form. Dynamic Vapor sorption (DVS) moisture sorption isotherms were generated using IGA-sorp moisture sorption analyzer (Hiden Analytical). Sample measurements were run without drying before analyses. XRPD was measured in order to check any changes of the solid form after the moisture sorption/desorption. The measurement condition is shown below: • Time at each RH steps: From 30 to 120 minutes • Relative humidity steps: 5 or 10% steps • Temperature: 25° C."}, "[2]": {"assay": "Temperature controlled XRPD (crystal form on heating)", "conditions": "heating up to melting", "protocol": "Temperature controlled XRPD was measured by the X'pert-MPD with an Anton Paar TCU 100 Temperature Control Unit. Sample was measured from 30° C. to 250° C. or 270° C. with 10° C. increments. Measurement conditions were as follows: range: 4-30°, step: 0.017°, time per step: 100 s.\nFT-Raman, XRPD, DSC, TGA, and DVS instruments and techniques are similar to those in Example 3. Temperature controlled XRPD was measured by X'pert-Pro MPD (Spectris) with TCU 100 Temperature Control Unit (Anton Paar). The temperature of the sampling stage was increased step by step as programmed and XRPD patterns of sample were measured at each step. The measurement condition is shown below: • Range angle: From 4 to 30° • Step size: 0.017° • Time per step: 100 s"}, "[3]": {"assay": "Crystal form stability on humidity, storage and drying (XRPD / FT-Raman)", "conditions": "for crystal form before and after DVS measurement (XRPD): moisture sorption/desorption", "protocol": "DVS moisture sorption isotherms were generated using a Hiden Analytical IGA-sorp moisture sorption analyzer. Samples were run as received without pre-analysis drying. Each sample was equilibrated between about 30 and 120 minutes at each relative humidity (RH) step. Temperature was fixed at about 25° C. and the relative humidity steps (0 to 95% RH) were in 5-10% increments. Sample sizes ranged from 3 to 30 mg. After DVS measurement, XRPD was measured in order to check the solid form. FT-Raman analyses were performed by using MultiRAM (Bruker Optics). Each suspension or dry powder sample was measured from out of glass vial. The measurement condition is shown below: • Excitation wavelength: 1064 nm • Laser power: 500 mW • Wavenumber: 4 cm^−1 • Sample scan: 128 times X-ray Powder Diffraction (XRPD) spectra were obtained by X'pert Pro MPD (Spectris). X-rays was generated with Cu Kα radiation. The powder samples were put on the reflection free sample plate. The XRPD patterns were analyzed by HighScorePlus. The measurement condition is shown below: • Range angle: From 4 to 30°, to 40° and to 65° (2θ) • Step size: 0.017° • Time per step: 100 s Dynamic Vapor sorption (DVS) moisture sorption isotherms were generated using IGA-sorp moisture sorption analyzer (Hiden Analytical). Sample measurements were run without drying before analyses. XRPD was measured in order to check any changes of the solid form after the moisture sorption/desorption. The measurement condition is shown below: • Time at each RH steps: From 30 to 120 minutes • Relative humidity steps: 5 or 10% steps • Temperature: 25° C."}, "[4]": {"conditions": "humidity increased from 0% RH to 95% RH"}},
  "note": "Entries after “also recorded” stand apart in the source; their conditions may differ.",
  "data": [
    {"smiles": "CNC[C@H]1OCCn2nc3ccccc3c21.O=S(=O)(O)c1ccccc1", "note": "[Form BA, (R)-1-(3,4-dihydro-1H-[1,4]oxazino[4,3-b]indazol-1-yl)-N-methylmethanamine benzenesulfonate]", "values": [
      {"measurement": "weight gain (DVS)", "setting": "[1]; at 90% RH, another batch of Form BA", "value": "about 1%"},
      {"measurement": "weight gain (DVS)", "setting": "[1]; at 90% RH, one batch of Form BA", "value": "about 2%"},
      {"measurement": "weight gain (DVS)", "setting": "[1]; at 95% RH", "value": "about 2%"},
      {"measurement": "weight gain (DVS)", "setting": "[1]; at 95% RH, another batch of Form BA", "value": "about 2%"},
      {"measurement": "weight gain (DVS)", "setting": "[1]; at 95% RH, one batch of Form BA", "value": "about 8%"},
      {"measurement": "hygroscopicity", "setting": "[1]; benzenesulfonate", "value": "less hygroscopicity; also recorded: good hygroscopicity behavior"},
      {"measurement": "hygroscopicity", "setting": "[1]; listed as besylate, benzenesulfonate", "value": "less hygroscopicity"},
      {"measurement": "transformation of crystal form, temperature controlled XRPD", "setting": "[2]", "value": "not transformed to any other polymorph"}
    ]},
    {"smiles": "CNC[C@H]1OCCn2nc3ccccc3c21.O=C(O)/C=C/C(=O)O", "note": "[Form FA, (R)-1-(3,4-dihydro-1H-[1,4]oxazino[4,3-b]indazol-1-yl)-N-methylmethanamine fumarate]", "values": [
      {"measurement": "transformation of crystal form, temperature controlled XRPD", "setting": "[2]", "value": "not transformed to any other polymorph"}
    ]},
    {"smiles": "CNC[C@H]1OCCn2nc3ccccc3c21.O=C(O)/C=C/C(=O)O", "note": "[Form FB, (R)-1-(3,4-dihydro-1H-[1,4]oxazino[4,3-b]indazol-1-yl)-N-methylmethanamine fumarate]", "values": [
      {"measurement": "weight gain (DVS)", "setting": "[1]; at over 75% RH", "value": "about 5%"},
      {"measurement": "crystal form after storage under humidity", "setting": "[3]; 75% RH overnight (NaCl water suspension)", "value": "Form FA was observed"},
      {"measurement": "crystal form under dry condition or heated", "setting": "[3]; dry condition or heated, quickly transformed back to hydrous form in the air", "value": "anhydrous form can be obtained"}
    ]},
    {"smiles": "CNC[C@H]1OCCn2nc3ccccc3c21.Cl", "note": "[Form HA, (R)-1-(3,4-dihydro-1H-[1,4]oxazino[4,3-b]indazol-1-yl)-N-methylmethanamine hydrochloride]", "values": [
      {"measurement": "weight gain (DVS)", "setting": "[1]; at 95% RH", "value": "over 100%"},
      {"measurement": "hygroscopicity", "setting": "[1]; hydrochloride", "value": "Highly hygroscopic"},
      {"measurement": "crystal form before and after DVS measurement (XRPD)", "setting": "[3]; hydrochloride", "value": "transformed to Form HC mixed with an unidentified polymorph"}
    ]},
    {"smiles": "CNC[C@H]1OCCn2nc3ccccc3c21.Cl", "note": "[Form HB, (R)-1-(3,4-dihydro-1H-[1,4]oxazino[4,3-b]indazol-1-yl)-N-methylmethanamine hydrochloride]", "values": [
      {"measurement": "crystal form stability on isolation", "setting": "[3]; observed only in a suspension state, filtrated and dried, hydrochloride", "value": "transformed to Form HC or Form HA; also recorded: Not stable"}
    ]},
    {"smiles": "CNC[C@H]1OCCn2nc3ccccc3c21.Cl", "note": "[Form HC, (R)-1-(3,4-dihydro-1H-[1,4]oxazino[4,3-b]indazol-1-yl)-N-methylmethanamine hydrochloride]", "values": [
      {"measurement": "weight gain (DVS)", "setting": "[1]; between 60% RH and 70% RH (Form HC transformed to Form HD)", "value": 6.5, "unit": "%"},
      {"measurement": "weight gain (DVS)", "setting": "[1]; [4]", "value": 9.3, "unit": "%"},
      {"measurement": "hygroscopicity", "setting": "[1]; hydrochloride", "value": "hygroscopic"},
      {"measurement": "crystal form after storage at high-humid condition (Raman)", "setting": "[3]; 75% RH for 1 day, saturated sodium chloride water", "value": "transformed to Form HD"},
      {"measurement": "crystal form transformation", "setting": "[3]; humidity level of more than 70% RH", "value": "Transformed to Form D"},
      {"measurement": "crystal form before and after DVS measurement (XRPD)", "setting": "[3]; hydrochloride", "value": "basically stable"}
    ]},
    {"smiles": "CNC[C@H]1OCCn2nc3ccccc3c21.Cl", "note": "[Form HD, (R)-1-(3,4-dihydro-1H-[1,4]oxazino[4,3-b]indazol-1-yl)-N-methylmethanamine hydrochloride]", "values": [
      {"measurement": "crystal form transformation", "setting": "[3]; at room temperature", "value": "Transformed to Form C"}
    ]},
    {"smiles": "CNC[C@H]1OCCn2nc3ccccc3c21.Cc1ccc(S(=O)(=O)O)cc1", "note": "[Form TA, (R)-1-(3,4-dihydro-1H-[1,4]oxazino[4,3-b]indazol-1-yl)-N-methylmethanamine tosylate]", "values": [
      {"measurement": "weight gain (DVS)", "setting": "[1]; at 95% RH", "value": "about 1%"},
      {"measurement": "weight gain (DVS)", "setting": "[1]; [4]", "value": "~1", "unit": "%"},
      {"measurement": "hygroscopicity", "setting": "[1]; listed as Tosylate, tosylate", "value": "less hygroscopicity"},
      {"measurement": "hygroscopicity", "setting": "[1]; listed as tosylate, tosylate", "value": "less hygroscopicity"},
      {"measurement": "hygroscopicity", "setting": "[1]; tosylate", "value": "less hygroscopicity; also recorded: good hygroscopicity behavior; also recorded: non-hygroscopicity"},
      {"measurement": "transformation of crystal form, temperature controlled XRPD", "setting": "[2]; tosylate", "value": "not transformed to any other polymorph; also recorded: stable in terms of the crystal form and not transformed to another form until the melting point"},
      {"measurement": "crystal form before and after DVS measurement (XRPD)", "setting": "[3]", "value": "no changes of the crystal form"}
    ]},
    {"smiles": "CNC[C@H]1OCCn2nc3ccccc3c21.O=C(O)/C=C/C(=O)O", "note": "[fumarate, (R)-1-(3,4-dihydro-1H-[1,4]oxazino[4,3-b]indazol-1-yl)-N-methylmethanamine fumarate]", "values": [
      {"measurement": "hygroscopicity", "setting": "[1]", "value": "no hygroscopicity"}
    ]}
  ]
}
